Measured values from patent US7932270B2 (Cytokinetics, Inc., priority 2006, dated 2011).

Molecular target: T1, chicken gizzard smooth muscle myosin subfragment-1 chemically crosslinked to cardiac or skeletal actin (Gallus gallus, UniProt P10587)
T1 construct: chicken gizzard smooth muscle myosin subfragment-1; from tissue; host or cells: chicken gizzard
Assay: Smooth muscle myosin ATPase dose response assay (pyruvate kinase/horseradish peroxidase/pyruvate oxidase-coupled, amplex red fluorescence)
Assay type: biochemical
Details: read-out: IC50 Arithmetic Mean
Summary of the method: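 Inhibition is measured in a peroxidase/pyruvate oxidase-linked format at pH 7.00 and 22° C, 0.15 mM ATP final. Myosin input is titrated to a target turnover since active fraction differs between preparations.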

T1 sequence (P02607 2-151): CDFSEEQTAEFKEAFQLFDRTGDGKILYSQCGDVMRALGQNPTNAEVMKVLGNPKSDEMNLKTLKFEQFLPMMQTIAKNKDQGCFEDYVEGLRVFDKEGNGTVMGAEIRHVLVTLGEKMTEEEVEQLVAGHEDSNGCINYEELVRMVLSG
T1 sequence (P10587 84-789): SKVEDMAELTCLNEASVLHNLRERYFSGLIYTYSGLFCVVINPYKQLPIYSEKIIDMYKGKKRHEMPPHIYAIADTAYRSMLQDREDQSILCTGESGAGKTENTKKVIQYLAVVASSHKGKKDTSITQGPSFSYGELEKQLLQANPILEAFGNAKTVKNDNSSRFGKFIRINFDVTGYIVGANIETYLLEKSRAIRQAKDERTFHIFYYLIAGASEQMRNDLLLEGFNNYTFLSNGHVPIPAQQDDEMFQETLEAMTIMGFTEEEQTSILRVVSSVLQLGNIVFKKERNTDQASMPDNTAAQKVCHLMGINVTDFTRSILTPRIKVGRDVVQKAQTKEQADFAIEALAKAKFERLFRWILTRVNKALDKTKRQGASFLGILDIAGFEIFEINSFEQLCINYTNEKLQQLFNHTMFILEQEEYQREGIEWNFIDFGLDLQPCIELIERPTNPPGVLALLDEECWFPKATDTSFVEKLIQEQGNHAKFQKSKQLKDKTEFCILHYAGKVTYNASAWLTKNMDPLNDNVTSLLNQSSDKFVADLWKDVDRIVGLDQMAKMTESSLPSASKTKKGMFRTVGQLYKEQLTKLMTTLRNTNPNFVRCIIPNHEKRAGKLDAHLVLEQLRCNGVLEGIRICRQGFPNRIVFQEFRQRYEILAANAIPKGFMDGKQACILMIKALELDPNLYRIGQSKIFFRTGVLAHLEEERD

Structure (SMILES)	IC50 [nM]
CC(C)(C)OC(=O)NCc1ncccc1CNC(=O)c1cc(F)c(-c2ccccn2)nc1NCCc1cccc(F)c1 [N-[(2-{[(tert-butoxy)carbonylamino]methyl}(3-pyridyl))methyl](5-fluoro-2-{[2-(3-fluorophenyl)ethyl]amino}-6-(2-pyridyl)(3-pyridyl))carboxamide]	3660
N#Cc1ccccc1-c1ccc(C(=O)NCC2CCCN2)c(NCCc2cccc(F)c2)n1 (stereo not shown) [(6-(2-cyanophenyl)-2-{[2-(3-fluorophenyl)ethyl]amino}(3-pyridyl))-N-(pyrrolidin-2-ylmethyl)carboxamide]	439
NCc1ccc(-c2ccc(C(=O)NCc3cccnc3)c(NCCc3cccc(F)c3)n2)s1 [(6-[5-(aminomethyl)(2-thienyl)]-2-{[2-(3-fluorophenyl)ethyl]amino}(3-pyridyl))-N-(3-pyridylmethyl)carboxamide]	2700
N#Cc1ccccc1-c1ccc(C(=O)NC[C@H]2CCN2)c(NCCc2cccc(F)c2)n1 [N-[((2R)azetidin-2-yl)methyl](6-(2-cyanophenyl)-2-{[2-(3-fluorophenyl)ethyl]amino}(3-pyridyl))carboxamide]	413
CN(CCNC(=O)c1ccc(-c2ccccc2C#N)nc1NCCc1cccc(F)c1)C(=O)CCN [3-amino-N-{2-[(6-(2-cyanophenyl)-2-{[2-(3-fluorophenyl)ethyl]amino}(3-pyridyl))carbonylamino]ethyl}-N-methylpropanamide]	1780
Cn1cc(-c2nc(NCCc3cccc(F)c3)c(C(=O)NCCCN)cc2F)cn1 [N-(3-aminopropyl)(5-fluoro-2-{[2-(3-fluorophenyl)ethyl]amino}-6-(1-methylpyrazol-4-yl)(3-pyridyl))carboxamide]	3960
O=C(NCc1cccnc1)c1ccc(-c2ccccc2)nc1NCCc1cc(F)ccc1F [(2-{[2-(2,5-difluorophenyl)ethyl]amino}-6-phenyl(3-pyridyl))-N-(3-pyridylmethyl)carboxamide]	79
CC[C@H](CNC(=O)c1cc(F)c(-c2cn[nH]c2)nc1NCCc1cccc(F)c1)NC(=O)CN [N-((1R)-1-{[(5-fluoro-2-{[2-(3-fluorophenyl)ethyl]amino}-6-pyrazol-4-yl(3-pyridyl))carbonylamino]methyl}propyl)-2-aminoacetamide]	160
N#Cc1ccccc1-c1ccc(C(=O)NCc2cccnc2)c(NCCc2ccccn2)n1 [{6-(2-cyanophenyl)-2-[(2-(2-pyridyl)ethyl)amino](3-pyridyl)}-N-(3-pyridylmethyl)carboxamide]	460
COCc1ccccc1-c1ccc(C(=O)NCc2cccnc2)c(NCCc2ccccn2)n1 [{6-[2-(methoxymethyl)phenyl]-2-[(2-(2-pyridyl)ethyl)amino](3-pyridyl)}-N-(3-pyridylmethyl)carboxamide]	84500
Cn1cc(-c2nc(NCCc3cccc(F)c3)c(C(=O)NC[C@H]3CCCN3C(=O)CCCN)cc2C#N)cn1 [N-{[(2R)-1-(4-aminobutanoyl)pyrrolidin-2-yl]methyl}(5-cyano-2-{[2-(3-fluorophenyl)ethyl]amino}-6-(1-methylpyrazol-4-yl)(3-pyridyl))carboxamide]	211
Cn1cc(-c2nc(NCCc3cccc(F)c3)c(C(=O)NC[C@H]3CCN3C(=O)CNC(=O)OC(C)(C)C)cc2F)cn1 [N-[((2R)-1-{2-[(tert-butoxy)carbonylamino]acetyl}azetidin-2-yl)methyl](5-fluoro-2-{[2-(3-fluorophenyl)ethyl]amino}-6-(1-methylpyrazol-4-yl)(3-pyridyl))carboxamide]	436
Cc1cscc1-c1ccc(C(=O)NCc2cccnc2)c(NCCc2ccccn2)n1 [{6-(4-methyl(3-thienyl))-2-[(2-(2-pyridyl)ethyl)amino](3-pyridyl)}-N-(3-pyridylmethyl)carboxamide]	4060
N#Cc1ccccc1-c1nc(NCCc2cccc(F)c2)c(C(=O)NCc2cccnc2CN)cc1F [N-{[2-(aminomethyl)(3-pyridyl)]methyl}(6-(2-cyanophenyl)-5-fluoro-2-{[2-(3-fluorophenyl)ethyl]amino}(3-pyridyl))carboxamide]	6
N#Cc1ccccc1-c1ccc(C(=O)NCc2cccnc2CN)c(NCCc2cccc(F)c2)n1 [N-{[2-(aminomethyl)(3-pyridyl)]methyl}(6-(2-cyanophenyl)-2-{[2-(3-fluorophenyl)ethyl]amino}(3-pyridyl))carboxamide]	6
N#Cc1ccccc1-c1ccc(C(=O)NC[C@H]2CCC(=O)N2CCCCN2C(=O)c3ccccc3C2=O)c(NCCc2cccc(F)c2)n1 [N-({(2R)-1-[4-(1,3-dioxobenzo[c]azolin-2-yl)butyl]-5-oxopyrrolidin-2-yl}methyl)(6-(2-cyanophenyl)-2-{[2-(3-fluorophenyl)ethyl]amino}(3-pyridyl))carboxamide]	376
N#Cc1cscc1-c1ccc(C(=O)NCc2cccnc2)c(NCCc2cccc(F)c2)n1 [(6-(4-cyano(3-thienyl))-2-{[2-(3-fluorophenyl)ethyl]amino}(3-pyridyl))-N-(3-pyridylmethyl)carboxamide]	14
N#Cc1ccccc1-c1ccc(C(=O)NC[C@H](N)C(=O)O)c(NCCc2cccc(F)c2)n1 [(2S)-2-amino-3-[(6-(2-cyanophenyl)-2-{[2-(3-fluorophenyl)ethyl]amino}(3-pyridyl))carbonylamino]propanoic acid]	9760
NCc1ccsc1-c1ccc(C(=O)NCc2cccnc2)c(NCCc2cccc(F)c2)n1 [(6-[3-(aminomethyl)(2-thienyl)]-2-{[2-(3-fluorophenyl)ethyl]amino}(3-pyridyl))-N-(3-pyridylmethyl)carboxamide]	55700

Structure (SMILES)	IC50 [nM]
N#Cc1ccccc1-c1ccc(C(=O)NCc2ccnn2CCN)c(NCCc2cccc(F)c2)n1 [N-{[1-(2-aminoethyl)pyrazol-5-yl]methyl}(6-(2-cyanophenyl)-2-{[2-(3-fluorophenyl)ethyl]amino}(3-pyridyl))carboxamide]	32
Cc1cc(C)n(CCNc2nc(-c3ccccc3)ccc2C(=O)NCc2cccnc2)n1 [(2-{[2-(3,5-dimethylpyrazolyl)ethyl]amino}-6-phenyl(3-pyridyl))-N-(3-pyridylmethyl)carboxamide]	6830
N#Cc1ccccc1-c1ccc(C(=O)NCc2cncc(CO)c2)c(NCCc2cccc(F)c2)n1 [(6-(2-cyanophenyl)-2-{[2-(3-fluorophenyl)ethyl]amino}(3-pyridyl))-N-{[5-(hydroxymethyl)(3-pyridyl)]methyl}carboxamide]	81
N#Cc1ccc(CNC(=O)c2ccc(-c3ccccc3C#N)nc2NCCc2cccc(F)c2)cc1 [(6-(2-cyanophenyl)-2-{[2-(3-fluorophenyl)ethyl]amino}(3-pyridyl))-N-[(4-cyanophenyl)methyl]carboxamide]	968
N#Cc1ccccc1-c1ccc(C(=O)NC[C@H]2CCCN2S(=O)(=O)CCCN2C(=O)c3ccccc3C2=O)c(NCCc2cccc(F)c2)n1 [N-[((2R)-1-{[3-(1,3-dioxobenzo[c]azolin-2-yl)propyl]sulfonyl}pyrrolidin-2-yl)methyl](6-(2-cyanophenyl)-2-{[2-(3-fluorophenyl)ethyl]amino}(3-pyridyl))carboxamide]	11300
C[C@H](CNC(=O)c1cc(F)c(-c2cnn(C)c2)nc1NCCc1cccc(F)c1)NC(=O)CNC(=O)OC(C)(C)C	1750
O=C(NCc1cccnc1)c1ccc(-c2ccccc2)nc1NCCc1cc(F)cc(F)c1 [(2-{[2-(3,5-difluorophenyl)ethyl]amino}-6-phenyl(3-pyridyl))-N-(3-pyridylmethyl)carboxamide]	55
COCc1cccc(-c2ccc(C(=O)NCc3cccnc3)c(NCCc3cccc(F)c3)n2)c1 [(2-{[2-(3-fluorophenyl)ethyl]amino}-6-[3-(methoxymethyl)phenyl](3-pyridyl))-N-(3-pyridylmethyl)carboxamide]	5720
C[C@H](CNC(=O)c1cc(F)c(-c2cnn(C)c2)nc1NCCc1cccc(F)c1)NC(=O)CN	76
O=C(NCc1cccnc1)c1ccc(-c2ccccc2)nc1NCCCc1ccccc1 [{6-phenyl-2-[(3-phenylpropyl)amino](3-pyridyl)}-N-(3-pyridylmethyl)carboxamide]	5690
NCCCN1C(=O)CC[C@@H]1CNC(=O)c1ccc(-c2cn[nH]c2)nc1NCCc1cccc(F)c1 [N-{[(2R)-1-(3-aminopropyl)-5-oxopyrrolidin-2-yl]methyl}(2-{[2-(3-fluorophenyl)ethyl]amino}-6-pyrazol-4-yl(3-pyridyl))carboxamide]	966
N#Cc1ccccc1-c1ccc(C(=O)NCc2cccnc2)c(NCCc2ccccc2F)n1 [(6-(2-cyanophenyl)-2-{[2-(2-fluorophenyl)ethyl]amino}(3-pyridyl))-N-(3-pyridylmethyl)carboxamide]	28
COc1cccc(-c2ccc(C(=O)NCc3cccnc3)c(NCCc3ccccn3)n2)c1 [{6-(3-methoxyphenyl)-2-[(2-(2-pyridyl)ethyl)amino](3-pyridyl)}-N-(3-pyridylmethyl)carboxamide]	14900
CCOC(=O)CCNC(=O)c1ccc(-c2ccccc2C#N)nc1NCCc1cccc(F)c1 [ethyl 3-[(6-(2-cyanophenyl)-2-{[2-(3-fluorophenyl)ethyl]amino}-3-pyridyl)carbonylamino]propanoate]	4790
Nc1ccc(CCNc2nc(-c3ccccc3)ccc2C(=O)NCc2cccnc2)cc1 [(2-{[2-(4-aminophenyl)ethyl]amino}-6-phenyl(3-pyridyl))-N-(3-pyridylmethyl)carboxamide]	27100
Cn1cc(-c2ccc(C(=O)NC[C@H]3CCCN3C(=O)OC(C)(C)C)c(NCCc3cccc(F)c3)n2)cn1 [tert-butyl (2R)-2-{[(2-{[2-(3-fluorophenyl)ethyl]amino}-6-(1-methylpyrazol-4-yl)(3-pyridyl))carbonylamino]methyl}pyrrolidinecarboxylate]	4640
N#Cc1ccccc1-c1ccc(C(=O)NCc2cccc(CO)n2)c(NCCc2cccc(F)c2)n1 [(6-(2-cyanophenyl)-2-{[2-(3-fluorophenyl)ethyl]amino}(3-pyridyl))-N-{[6-(hydroxymethyl)(2-pyridyl)]methyl}carboxamide]	37
Cn1cc(-c2ccc(C(=O)NCc3cccnc3)c(NCCc3cccc(F)c3)n2)cn1	40
